Laboratory results reported in BindingDB's records for doi:10.1021/jm050559f (Wyeth Research, 2005).

Assays:
[1] = target: T1, Vascular endothelial growth factor receptor 2 (Homo sapiens, UniProt P35968); assay: Inhibition of poly(Glu4-Tyr)peptide phosphorylation by recombinant VEGFR2 at 10 uM ATP and in presence of 100 uM glutathione
[2] = target: T1, Vascular endothelial growth factor receptor 2; assay: Inhibition of poly(Glu4-Tyr)peptide phosphorylation by recombinant VEGFR2 at 10 uM ATP
[3] = target: T1, Vascular endothelial growth factor receptor 2; assay: Inhibition of poly(Glu4-Tyr)peptide phosphorylation by recombinant VEGFR2 at 10 uM ATP and in presence of 5% mouse plasma

Measured: IC50

T1 sequence (P35968 whole entry): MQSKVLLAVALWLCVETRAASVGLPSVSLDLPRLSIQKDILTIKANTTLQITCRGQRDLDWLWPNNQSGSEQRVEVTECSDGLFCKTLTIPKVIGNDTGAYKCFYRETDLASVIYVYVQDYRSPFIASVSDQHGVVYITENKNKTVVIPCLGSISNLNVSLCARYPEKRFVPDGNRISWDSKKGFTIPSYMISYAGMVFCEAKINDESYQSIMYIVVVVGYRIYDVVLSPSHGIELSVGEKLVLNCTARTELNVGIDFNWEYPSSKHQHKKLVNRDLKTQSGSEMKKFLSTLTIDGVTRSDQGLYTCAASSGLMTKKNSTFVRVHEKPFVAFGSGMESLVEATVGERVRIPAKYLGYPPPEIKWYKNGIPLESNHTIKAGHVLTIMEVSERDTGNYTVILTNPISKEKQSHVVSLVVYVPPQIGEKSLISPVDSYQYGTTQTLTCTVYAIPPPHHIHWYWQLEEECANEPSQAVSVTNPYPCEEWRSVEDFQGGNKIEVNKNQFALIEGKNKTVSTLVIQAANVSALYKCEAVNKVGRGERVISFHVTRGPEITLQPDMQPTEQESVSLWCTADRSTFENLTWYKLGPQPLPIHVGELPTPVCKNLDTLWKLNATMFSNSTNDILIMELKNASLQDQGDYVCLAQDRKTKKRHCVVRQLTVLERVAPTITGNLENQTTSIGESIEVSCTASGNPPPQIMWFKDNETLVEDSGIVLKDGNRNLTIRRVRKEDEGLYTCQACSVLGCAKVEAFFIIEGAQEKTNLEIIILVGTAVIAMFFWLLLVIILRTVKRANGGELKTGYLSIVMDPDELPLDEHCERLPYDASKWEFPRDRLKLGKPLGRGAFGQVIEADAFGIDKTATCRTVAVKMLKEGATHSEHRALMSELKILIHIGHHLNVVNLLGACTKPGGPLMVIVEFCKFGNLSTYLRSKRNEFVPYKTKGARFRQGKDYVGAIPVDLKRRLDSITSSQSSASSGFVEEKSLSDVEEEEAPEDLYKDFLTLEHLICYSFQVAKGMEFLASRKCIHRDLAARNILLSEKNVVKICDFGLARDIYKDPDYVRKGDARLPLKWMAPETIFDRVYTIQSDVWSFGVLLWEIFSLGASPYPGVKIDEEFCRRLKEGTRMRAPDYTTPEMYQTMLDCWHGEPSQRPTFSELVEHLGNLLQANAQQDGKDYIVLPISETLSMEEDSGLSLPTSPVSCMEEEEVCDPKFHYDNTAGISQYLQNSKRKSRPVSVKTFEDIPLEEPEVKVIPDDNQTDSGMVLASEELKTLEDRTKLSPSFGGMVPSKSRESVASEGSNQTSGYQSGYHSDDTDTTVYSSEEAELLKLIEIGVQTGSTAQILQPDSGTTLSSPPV

COCCOc1cc2ncnc(N=C3C(=O)C(OC)=CC(=O)C3Sc3ccccn3)c2cc1OC (stereo not drawn) [5-methoxy-3-{[6-methoxy-7-(2-methoxyethoxy)quinazolin-4-yl]amino}-2-(pyridin-2-ylthio)benzo-1,4-quinone]
> 1000 nM: all assays above
